Measured values from ChEMBL document CHEMBL3875180, “8-Thioalkyl-adenosine derivatives inhibit Listeria monocytogenes NAD kinase through a novel binding mode” (Eur J Med Chem, 2016).

Tests used:
[1] = Competitive inhibition of Listeria monocytogenes C-terminal His6-tagged NADK1 expressed in Escherichia coli BL21(DE3) assessed as reduction in NADP production using varying levels of NAD as substrate by glucose-6-phosphate dehydrogenase coupled enzyme based spectrophotometric method
[2] = target: T1, NAD kinase (Homo sapiens, UniProt O95544); assay: Inhibition of human NADK expressed in Escherichia coli BL21(DE3) assessed as reduction in NADP production using NAD as substrate by glucose-6-phosphate dehydrogenase coupled enzyme based spectrophotometric method
T1 sequence (O95544 whole entry): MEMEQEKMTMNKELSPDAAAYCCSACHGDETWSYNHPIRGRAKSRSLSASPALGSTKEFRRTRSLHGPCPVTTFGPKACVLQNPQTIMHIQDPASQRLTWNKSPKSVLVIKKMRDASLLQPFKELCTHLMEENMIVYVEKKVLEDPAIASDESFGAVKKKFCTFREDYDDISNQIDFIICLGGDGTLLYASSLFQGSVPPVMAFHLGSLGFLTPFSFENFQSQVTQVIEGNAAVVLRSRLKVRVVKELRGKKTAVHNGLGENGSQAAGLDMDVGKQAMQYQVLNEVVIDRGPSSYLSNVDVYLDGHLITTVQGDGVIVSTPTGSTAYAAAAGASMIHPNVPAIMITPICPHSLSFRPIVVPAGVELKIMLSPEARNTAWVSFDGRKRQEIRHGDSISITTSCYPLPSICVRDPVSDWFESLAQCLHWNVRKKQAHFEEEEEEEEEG

[3] = Cytotoxicity against human MRC5 cells up to 1 x 10^-4M; assay type: toxicity, cell-based
[4] = target: T2, NAD kinase (Staphylococcus aureus (strain COL), UniProt Q5HH78); assay: Inhibition of Staphylococcus aureus COL NADK expressed in Escherichia coli BL21(DE3) assessed as reduction in NADP production using NAD as substrate by glucose-6-phosphate dehydrogenase coupled enzyme based spectrophotometric method; design: species or system Staphylococcus aureus subsp. aureus COL
T2 sequence (Q5HH78 whole entry): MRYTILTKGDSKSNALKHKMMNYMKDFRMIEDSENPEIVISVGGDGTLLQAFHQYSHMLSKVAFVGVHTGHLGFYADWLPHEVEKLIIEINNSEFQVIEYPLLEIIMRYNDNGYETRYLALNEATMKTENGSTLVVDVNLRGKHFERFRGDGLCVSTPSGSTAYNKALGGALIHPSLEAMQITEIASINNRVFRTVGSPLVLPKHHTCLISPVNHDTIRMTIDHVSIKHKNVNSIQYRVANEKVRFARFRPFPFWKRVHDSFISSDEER

[5] = target: T3, NAD kinase (Homo sapiens) (UniProt O95544); assay: Inhibition of human NADK expressed in Escherichia coli BL21(DE3) assessed as reduction in NADP production at 500 uM using NAD as substrate by glucose-6-phosphate dehydrogenase coupled enzyme based spectrophotometric method relative to control
T3 sequence (whole entry): T1 sequence (O95544 whole entry)

[6] = target: T3, NAD kinase (Homo sapiens); assay: Inhibition of human NADK expressed in Escherichia coli BL21(DE3) assessed as reduction in NADP production at 250 uM using NAD as substrate by glucose-6-phosphate dehydrogenase coupled enzyme based spectrophotometric method relative to control
[7] = tested on: Listeria monocytogenes; assay: Inhibition of Listeria monocytogenes C-terminal His6-tagged NADK1 expressed in Escherichia coli BL21(DE3) assessed as reduction in NADP production at 300 uM using NAD as substrate by glucose-6-phosphate dehydrogenase coupled enzyme based spectrophotometric method relative to control relative to control
[8] = target: T3, NAD kinase (Homo sapiens); assay: Inhibition of human NADK expressed in Escherichia coli BL21(DE3) assessed as reduction in NADP production at 400 uM using NAD as substrate by glucose-6-phosphate dehydrogenase coupled enzyme based spectrophotometric method relative to control

Structure (SMILES) | Ki [1] | Ki [2] | Activity [3] | IC50 [4] | inhibition [5] | inhibition [6] | inhibition [7] | inhibition [8]
Nc1ncnc2c1nc(SCC(=O)NCCc1c[nH]c3ccc(Cl)cc13)n2[C@@H]1O[C@H](CO)[C@@H](O)[C@H]1O | 0.25 µM | 775 µM | Non-Toxic |  |  |  |  | 
Nc1ncnc2c1nc(SCC(=O)NCCc1cccc(Br)c1)n2[C@@H]1O[C@H](CO)[C@@H](O)[C@H]1O | 2 µM | 335 µM | Non-Toxic | > 400 µM |  |  |  | 
Nc1ncnc2c1nc(SCC(=O)NCCc1c[nH]c3ccccc13)n2[C@@H]1O[C@H](CO)[C@@H](O)[C@H]1O | 2 µM |  | Non-Toxic |  | 20% |  |  | 
Nc1ncnc2c1nc(SCC(=O)NCCc1ccc(Cl)c(Cl)c1)n2[C@@H]1O[C@H](CO)[C@@H](O)[C@H]1O | 22 µM | 425 µM | Non-Toxic |  |  |  |  | 
COc1ccc2[nH]cc(CCNC(=O)CSc3nc4c(N)ncnc4n3[C@@H]3O[C@H](CO)[C@@H](O)[C@H]3O)c2c1 | 40 µM |  | Non-Toxic |  |  |  |  | 
[N-]=[N+]=NC[C@H]1O[C@@H](n2c(SCC(=O)NCc3cccc(Br)c3)nc3c(N)ncnc32)[C@H](O)[C@@H]1O | 25 µM |  | Non-Toxic | > 400 µM |  |  |  | 
[N-]=[N+]=NC[C@H]1O[C@@H](n2c(SCC(=O)NCCCc3ccccc3)nc3c(N)ncnc32)[C@H](O)[C@@H]1O | 55 µM | 150 µM | Non-Toxic | > 400 µM |  |  |  | 
[N-]=[N+]=NC[C@H]1O[C@@H](n2c(SCC(=O)NCCc3ccc(Cl)c(Cl)c3)nc3c(N)ncnc32)[C@H](O)[C@@H]1O | 0.1 µM | 140 µM | Non-Toxic |  |  |  |  | 
[N-]=[N+]=NC[C@H]1O[C@@H](n2c(SCC(=O)NCCc3c[nH]c4ccc(Cl)cc34)nc3c(N)ncnc32)[C@H](O)[C@@H]1O | 0.3 µM |  | Non-Toxic |  |  |  |  | 
CN(C)S(=O)(=O)NC[C@H]1O[C@@H](n2c(SCC(=O)NCCc3ccc(Cl)c(Cl)c3)nc3c(N)ncnc32)[C@H](O)[C@@H]1O | 3.5 µM | 160 µM | Non-Toxic |  |  |  |  | 
Nc1ncnc2c1nc(SCC(=O)NCCc1ccc(Cl)cc1)n2[C@@H]1O[C@H](CO)[C@@H](O)[C@H]1O | 40 µM |  | Non-Toxic |  | 20% |  |  | 
[N-]=[N+]=NC[C@H]1O[C@@H](n2c(SCC(=O)NCCc3ccc(C(F)(F)F)cc3)nc3c(N)ncnc32)[C@H](O)[C@@H]1O | 7.5 µM | 230 µM | Non-Toxic |  |  |  |  | 
C#Cc1cccc(CCNC(=O)CSc2nc3c(N)ncnc3n2[C@@H]2O[C@H](CN=[N+]=[N-])[C@@H](O)[C@H]2O)c1 | 6 µM |  | Non-Toxic |  |  | 20% |  | 
Nc1ncnc2c1nc(SCC(=O)NCCc1ccc(Br)cc1)n2[C@@H]1O[C@H](CO)[C@@H](O)[C@H]1O | 30 µM | 250 µM | Non-Toxic |  |  |  |  | 
[N-]=[N+]=NC[C@H]1O[C@@H](n2c(SCC(=O)NCCc3ccc4ccccc4c3)nc3c(N)ncnc32)[C@H](O)[C@@H]1O | 5 µM | 140 µM | Non-Toxic |  |  |  |  | 
C[C@H]1O[C@@H](n2c(SCC(=O)NCCc3ccc(Cl)c(Cl)c3)nc3c(N)ncnc32)[C@H](O)[C@@H]1O | 1.5 µM | 180 µM | Non-Toxic |  |  |  |  | 
Nc1ncnc2c1nc(SCCC(=O)NCCc1cccc(Br)c1)n2[C@@H]1O[C@H](CO)[C@@H](O)[C@H]1O | 50 µM |  | Non-Toxic | > 400 µM |  |  |  | 

Structure (SMILES) | Ki [1] | Ki [2] | Activity [3] | IC50 [4] | inhibition [5] | inhibition [6] | inhibition [7] | inhibition [8]
C#CCNC(=O)CSc1nc2c(N)ncnc2n1[C@@H]1O[C@H](CN=[N+]=[N-])[C@@H](O)[C@H]1O | 30 µM | 140 µM | Non-Toxic | > 400 µM |  |  |  | 
[N-]=[N+]=NC[C@H]1O[C@@H](n2c(SCC(=O)NCCc3cccc(C(F)(F)F)c3)nc3c(N)ncnc32)[C@H](O)[C@@H]1O | 6.5 µM | 300 µM | Non-Toxic |  |  |  |  | 
Nc1ncnc2c1nc(SCC(=O)NCCc1ccc(C(F)(F)F)cc1)n2[C@@H]1O[C@H](CO)[C@@H](O)[C@H]1O | 10 µM |  | Non-Toxic |  |  |  |  | 
[N-]=[N+]=NC[C@H]1O[C@@H](n2c(SCC(=O)NCCc3nc4ccccc4[nH]3)nc3c(N)ncnc32)[C@H](O)[C@@H]1O | 23 µM | 525 µM | Non-Toxic |  |  |  |  | 
[N-]=[N+]=NC[C@H]1O[C@@H](n2c(SCC(=O)NCCc3ccc(Br)cc3)nc3c(N)ncnc32)[C@H](O)[C@@H]1O | 0.5 µM |  | Non-Toxic |  |  |  |  | 
NC[C@H]1O[C@@H](n2c(SCC(=O)NCCc3ccc(Cl)c(Cl)c3)nc3c(N)ncnc32)[C@H](O)[C@@H]1O | 2 µM | 130 µM | Non-Toxic |  |  |  |  | 
[N-]=[N+]=NC[C@H]1O[C@@H](n2c(SCC(=O)NCCc3cccc(Cl)c3)nc3c(N)ncnc32)[C@H](O)[C@@H]1O | 0.75 µM |  | Non-Toxic |  |  |  |  | 
COc1ccc2[nH]cc(CCNC(=O)CSc3nc4c(N)ncnc4n3[C@@H]3O[C@H](CN=[N+]=[N-])[C@@H](O)[C@H]3O)c2c1 | 5 µM | 160 µM | Non-Toxic |  |  |  |  | 
[N-]=[N+]=NC[C@H]1O[C@@H](n2c(SCC(=O)NCc3ccnc(Cl)c3)nc3c(N)ncnc32)[C@H](O)[C@@H]1O |  | 220 µM | Non-Toxic | > 400 µM |  |  | 20% | 
[N-]=[N+]=NC[C@H]1O[C@@H](n2c(SCC(=O)NCCc3c[nH]c4ccccc34)nc3c(N)ncnc32)[C@H](O)[C@@H]1O | 0.5 µM | 140 µM | Non-Toxic |  |  |  |  | 
NC[C@H]1O[C@@H](n2c(SCC(=O)NCCc3ccc(Br)cc3)nc3c(N)ncnc32)[C@H](O)[C@@H]1O | 55 µM | 130 µM | Non-Toxic |  |  |  |  | 
Nc1ncnc2c1nc(SCC(=O)NCCc1ccccc1)n2[C@@H]1O[C@H](CO)[C@@H](O)[C@H]1O | 140 µM |  | Non-Toxic | > 400 µM |  |  |  | 10%
Cn1cc(CCNC(=O)CSc2nc3c(N)ncnc3n2[C@@H]2O[C@H](CN=[N+]=[N-])[C@@H](O)[C@H]2O)c2ccccc21 | 0.4 µM | 350 µM | Non-Toxic |  |  |  |  | 
CCNC(=O)NC[C@H]1O[C@@H](n2c(SCC(=O)NCCc3ccc(Cl)c(Cl)c3)nc3c(N)ncnc32)[C@H](O)[C@@H]1O | 3 µM |  | Non-Toxic |  |  | 10% |  | 
Nc1ncnc2c1nc(SCC(=O)NCCc1cccc(Cl)c1)n2[C@@H]1O[C@H](CO)[C@@H](O)[C@H]1O | 30 µM | 200 µM | Non-Toxic |  |  |  |  | 
[N-]=[N+]=NC[C@H]1O[C@@H](n2c(SCC(=O)NCCc3ccc(Cl)cc3)nc3c(N)ncnc32)[C@H](O)[C@@H]1O | 0.5 µM | 210 µM | Non-Toxic |  |  |  |  | 
